Measurements reported in patent US10729664B2, “Permanently charged sodium and calcium channel blockers as anti-inflammatory agents” (Children's Medical Center Corporation, priority 2009, dated 2020).
Entries after “also recorded” stand apart in the source; their conditions may differ.

Experiments:
[1] = system: voltage-dependent calcium channels; test: Whole-cell recording of currents through voltage-activated calcium channels in a dissociated dorsal root ganglion neuron; assay type: cell-based, rat
Method: The traces show currents through voltage-activated calcium channels in a dissociated rat dorsal root ganglion neuron, recorded in whole-cell mode. Current was carried by 2 mM Ba^2+ on a background of 155 mM N-methyl-D-glucamine (to eliminate Na current), with an internal CsCl-based solution. Calcium channels were opened by a voltage step from −80 mV to −20 mV. When channels are opened, inward-going current is carried by Ba^2+ ions flowing into the cell.

rat hindpaw = test: Edema elicited by injection of complete Freund's adjuvant (CFA) in the rat hindpaw, total hindpaw volume by plethysmography; assay type: in vivo; conditions: intravenous QX-314 0.4 mg/kg
Method: FIG. 1 is a graph showing the effect of intravenous QX-314 (0.4 mg/kg) on the edema elicited by injection of complete Freund's adjuvant (CFA) in the rat hindpaw determined by measuring the total volume of the hindpaw by plethysmography. The degree of swelling produced by injection of CFA is reduced by administration of QX-314 reflecting reduction in neurogenic edema resulting from the blockade of nociceptors by QX314.

With `COc1ccc(CC[N+](C)(C)CCCC(C#N)(c2ccc(OC)c(OC)c2)C(C)C)cc1OC` (centres unmarked) [N-methyl-verapamil] the “effect on calcium channel currents, N-methyl-verapamil alone” value ([1]; 300 μM N-methyl-verapamil alone, before and 3 minutes after exposure, step from −80 mV to −20 mV, 2 mM Ba2+) was “weak, transient effects” and the “inhibition of voltage-dependent calcium channel current, N-methyl-verapamil applied in the presence of capsaicin” value ([1]; 300 μM N-methyl-verapamil in the presence of 1 μM capsaicin to open TRPV1 channels, 3 minutes after exposure and after washout) was “long-lasting inhibition; also recorded: inhibition of calcium channel currents that persists after washout; also recorded: inhibition of voltage-dependent calcium channel current”.

In the case of `COc1cc(CNC(=O)CCCC/C=C/C(C)C)ccc1O` [capsaicin, reference compound], the “effect on calcium channel currents, capsaicin alone” value ([1]; 1 μM capsaicin alone, before and 3 minutes after exposure, step from −80 mV to −20 mV, 2 mM Ba2+) is reported as “weak, transient effects”.

In the case of `CC[N+](CC)(CC)CC(=O)Nc1c(C)cccc1C` [QX-314], the “degree of swelling produced by injection of CFA (total volume of the hindpaw)” value (rat hindpaw; CFA-injected hindpaw) is reported as “reduced” and the “effect on hindpaw volume of QX-314 by itself” value (rat hindpaw; by itself (no CFA), compared with saline) is reported as “no effect different from administration of saline”.
